Assays:
Assay type in all cases: in vivo
[1] = test system: Brachiaria plantaginea (BRAPL); assay: Experiment 1: field experiment, post-emergence spray, % control 29 days after application; conditions: Atrazine 1500g/ha
Experimental: Duplicate 12m² plots were sprayed post-emergence with 250g or 500g/ha Compound 1 (in a composition according to Example 1 as described hereinafter) or 1500g/ha atrazine (in a commercial aqueous suspension concentrate formulation containing 500g/l w/v atrazine or a combination (as a tank mix) of the two herbicides in a volume of 300 litres/ha. The following control figures were recorded on the grass weeds Brachiaria plantaginea (BRAPL), Digitaria horizontalis (DIGHO) and Eleusine indica (ELEIN) 29 days after application.

Sida spinosa = assay: Experiment 4: glasshouse, pre-emergence, fresh weight after 27 days, % inhibition of growth; conditions: for % inhibition of growth: Compound 99 0 g/ha
Experimental: (§1) Glasshouse experiments showing the biological interaction between atrazine and Compound 99 on weed species when applied pre-emergence. […] After 27 days the fresh weight of vegetation in each pot was determined. […] E = […]00005:character} where E, X and Y are percentage inhibition of growth. In addition the ED90 values (the application rate giving 90% inhibition of growth) were calculated from the results for Compound 99 alone and with increasing rates of atrazine. The ED90 values were then used to plot an isobole for each species according to the method of […] op cit. The results of percentage inhibition of growth, the ED values calculated from them and the calculated expected values are given in Table 8.

Brassica kaber = assay: as above; conditions: for % inhibition of growth: Compound 99 0 g/ha
Experimental: as §1

Compound: CCNc1nc(Cl)nc(NC(C)C)n1 [Atrazine, 2-chloro-4-ethylamino-6-isopropylamino-1,3,5-triazine]
- % control observed [1]: 10%
- ED₉₀ (Sida spinosa; Atrazine alone): ED₉₀(g/ha) 478.75
- % inhibition of growth (Sida spinosa; Atrazine 16 g/ha): 10%
- % inhibition of growth (Sida spinosa; Atrazine 31 g/ha): 2%
- % inhibition of growth (Sida spinosa; Atrazine 63 g/ha): 15%
- % inhibition of growth (Sida spinosa; Atrazine 125 g/ha): 23%
- % inhibition of growth (Sida spinosa; Atrazine 250 g/ha): 37%
- % inhibition of growth (Sida spinosa; Atrazine 500 g/ha): 95%
- ED₉₀ (Brassica kaber; Atrazine alone): ED₉₀(g/ha) 157.7
- % inhibition of growth (Brassica kaber; Atrazine 16 g/ha): 0%
- % inhibition of growth (Brassica kaber; Atrazine 31 g/ha): 0%
- % inhibition of growth (Brassica kaber; Atrazine 63 g/ha): 34%
- % inhibition of growth (Brassica kaber; Atrazine 125 g/ha): 70%
- % inhibition of growth (Brassica kaber; Atrazine 250 g/ha): 100%
- % inhibition of growth (Brassica kaber; Atrazine 500 g/ha): 100%
